In patent publication US9290461B2, “Crystalline modifications of prothioconazole” (ADAMA MAKHTESHIM LTD, priority 2008, dated 2016):

Legend:
[1] = Solubility in water, Shake Flask Method (OECD Guideline 105); type: physicochemical; settings: 20° C., buffered at pH 7, Shake Flask Method (OECD Guideline 105)
Method: The following solubilities were measured in water, 20° C., buffered at pH 7, using the Shake Flask Method (OECD Guideline 105): […]

[2] = at room temperature; cited from earlier work

For `OC(Cc1ccccc1Cl)(Cn1nc[nH]c1=S)C1(Cl)CC1` (racemic) [Form I, 2-[(2RS)-2-(1-chlorocyclopropyl)-3-(2-chlorophenyl)-2-hydroxypropyl]-2H-1,2,4-triazole-3(4H)-thione], the solubility in water [1] is listed as 28 ppm and the “thermodynamic stability of the crystalline form” value [2] is listed as “metastable at room temperature”.

In the case of `OC(Cc1ccccc1Cl)(Cn1nc[nH]c1=S)C1(Cl)CC1` (racemic) [Form II, 2-[(2RS)-2-(1-chlorocyclopropyl)-3-(2-chlorophenyl)-2-hydroxypropyl]-2H-1,2,4-triazole-3(4H)-thione], the solubility in water [1] is listed as 15 ppm and the “thermodynamic stability of the crystalline form” value [2] is listed as “thermodynamically stable at room temperature”.

`OC(Cc1ccccc1Cl)(Cn1nc[nH]c1=S)C1(Cl)CC1` (stereo not drawn) [Amorphous, prothioconazole] showed a solubility in water [1] of 34 ppm.

Compound `OC(Cc1ccccc1Cl)(Cn1nc[nH]c1=S)C1(Cl)CC1` (stereo not drawn) [DMSO Solvate, prothioconazole] has a solubility in water [1] of 30 ppm.
